In patent US20070173493A1, “1-Oxadibenzo[e,h]azulenes for the treatment of central nervous system diseases and disorders” (Pliva-Istrazivacki Institut d.o.o., priority 2003, published 2007):

Assays:
5-HT2A receptor = molecular target: T1, 5-HT2A receptor (Homo sapiens, UniProt P28223); experiment: radioligand binding assay for 5-HT2A receptor ([3H]-ketanserin competitive binding); details: human cortex or recombinant 5-HT2A receptor expressed in CHO-K1 cells
T1 construct: expressed in transfected cells; host or cells: CHO-K1 (alternatively human cortex tissue)
Experimental: (§1) The effect of the compounds of the present invention on the neurochemical steady state was determined by in vitro investigations such as a radionuclide-marked radioligand binding assay for 5-HT2A (Bonhaus D. W. Br. J. Pharmacol. 1995, 115:622; Saucier C. J. Neurochem. 1997, 68:1998) and 5-HT2C receptors (Wolf W. A. J. Neurochem. 1997, 69:1449), in vitro binding assay for the σ1 receptor (Thomson W. and Donn R. Arthritis Res. 2002, 4: 302-306) and by in vivo investigations in a tail suspension test (Vogel H. G. and Vogel W. H. Drug Discovery and Evaluation Pharmacological Assays, Springer 1997, 304), in amphetamine-induced hyperlocomotion in mice (Millan M. J. et al, 1998 J Pharmacol. Exp. Ther. 287: 167-186), in a forced swim test in mice (Porsolt R. D. et al. Arch. Int. Pharmacodyn. 1977, 229:327-336), in meta-chlorophenyl piperazine (m-CPP) test on rats (Drug Dev. Res. 1989, 18:119-144), and in apomorphine, tryptamine, norepinephrine (ATN) test in rats (Arch. […]
(§2) A small concentration of a radioligand having a great affinity for binding to a receptor was incubated with a tissue sample enriched with a certain receptor (1-5 mg of tissue) in a buffered medium (0.2-5 mL). […] When a binding balance was achieved, the receptors to which the radioligand was bound were separated from those to which said ligand was not bound, and the radioactivity of the receptor/radioligand complex was measured. […]

5-HT2C receptor = molecular target: T2, 5-HT2C receptor (Homo sapiens, UniProt P28335); experiment: radioligand binding assay for 5-HT2C receptor ([3H]-mesulergine competitive binding); details: choroid plexus or recombinant 5-HT2C receptor expressed in CHO-K1 cells
T2 construct: expressed in transfected cells; host or cells: CHO-K1 (alternatively choroid plexus tissue)
T2 sequence (P28335 33-458): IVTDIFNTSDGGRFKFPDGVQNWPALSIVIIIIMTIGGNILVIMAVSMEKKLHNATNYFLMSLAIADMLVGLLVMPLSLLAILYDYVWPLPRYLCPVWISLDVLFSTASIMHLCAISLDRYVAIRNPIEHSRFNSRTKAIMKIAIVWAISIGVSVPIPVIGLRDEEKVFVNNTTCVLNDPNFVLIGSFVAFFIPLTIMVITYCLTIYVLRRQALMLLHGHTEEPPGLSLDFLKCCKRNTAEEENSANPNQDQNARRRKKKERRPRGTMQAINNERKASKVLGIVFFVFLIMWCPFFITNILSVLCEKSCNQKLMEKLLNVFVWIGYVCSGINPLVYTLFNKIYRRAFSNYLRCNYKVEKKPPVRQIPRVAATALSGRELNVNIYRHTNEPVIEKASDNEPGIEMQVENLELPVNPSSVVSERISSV
Experimental: as §1, §2

T1 sequence (P28223 whole entry): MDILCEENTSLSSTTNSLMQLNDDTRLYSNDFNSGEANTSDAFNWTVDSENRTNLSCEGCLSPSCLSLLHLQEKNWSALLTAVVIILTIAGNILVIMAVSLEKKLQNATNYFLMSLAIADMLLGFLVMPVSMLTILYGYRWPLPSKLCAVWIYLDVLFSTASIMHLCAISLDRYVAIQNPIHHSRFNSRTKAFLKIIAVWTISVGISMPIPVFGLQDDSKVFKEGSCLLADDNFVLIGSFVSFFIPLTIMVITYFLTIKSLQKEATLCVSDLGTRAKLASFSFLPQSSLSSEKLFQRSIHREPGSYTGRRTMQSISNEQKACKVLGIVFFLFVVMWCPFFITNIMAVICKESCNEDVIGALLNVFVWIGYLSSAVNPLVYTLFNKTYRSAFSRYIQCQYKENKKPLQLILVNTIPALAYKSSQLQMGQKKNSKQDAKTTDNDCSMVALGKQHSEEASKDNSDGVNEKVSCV

IC50 (5-HT2A receptor; read-out: binding affinity to 5-HT2A serotonin receptor expressed as IC50 value): < 200 nM | Ki (5-HT2A receptor; read-out: binding affinity to 5-HT2A serotonin receptor, Ki value): < 100 nM | IC50 (5-HT2C receptor; read-out: binding affinity to 5-HT2C serotonin receptor expressed as IC50 value): < 200 nM | Ki (5-HT2C receptor; read-out: binding affinity to 5-HT2C serotonin receptor, Ki value): < 100 nM
SMILES: CN(C)CCOCc1cc2c(o1)-c1cc(Cl)ccc1Oc1ccccc1-2 [[2-(11-chloro-1,8-dioxa-dibenzo[e,h]azulen-2-ylmethoxy)-ethyl]-dimethyl-amine]
